One data set addresses T1, Androgen receptor (AR) (Homo sapiens, UniProt P10275, T878A).
T1 construct: 5.5×10^5 LNCap cells were injected into each well of a 6-well plate; endogenous in cells; host or cells: LNCaP
T1 sequence (P10275 1-920 T878A): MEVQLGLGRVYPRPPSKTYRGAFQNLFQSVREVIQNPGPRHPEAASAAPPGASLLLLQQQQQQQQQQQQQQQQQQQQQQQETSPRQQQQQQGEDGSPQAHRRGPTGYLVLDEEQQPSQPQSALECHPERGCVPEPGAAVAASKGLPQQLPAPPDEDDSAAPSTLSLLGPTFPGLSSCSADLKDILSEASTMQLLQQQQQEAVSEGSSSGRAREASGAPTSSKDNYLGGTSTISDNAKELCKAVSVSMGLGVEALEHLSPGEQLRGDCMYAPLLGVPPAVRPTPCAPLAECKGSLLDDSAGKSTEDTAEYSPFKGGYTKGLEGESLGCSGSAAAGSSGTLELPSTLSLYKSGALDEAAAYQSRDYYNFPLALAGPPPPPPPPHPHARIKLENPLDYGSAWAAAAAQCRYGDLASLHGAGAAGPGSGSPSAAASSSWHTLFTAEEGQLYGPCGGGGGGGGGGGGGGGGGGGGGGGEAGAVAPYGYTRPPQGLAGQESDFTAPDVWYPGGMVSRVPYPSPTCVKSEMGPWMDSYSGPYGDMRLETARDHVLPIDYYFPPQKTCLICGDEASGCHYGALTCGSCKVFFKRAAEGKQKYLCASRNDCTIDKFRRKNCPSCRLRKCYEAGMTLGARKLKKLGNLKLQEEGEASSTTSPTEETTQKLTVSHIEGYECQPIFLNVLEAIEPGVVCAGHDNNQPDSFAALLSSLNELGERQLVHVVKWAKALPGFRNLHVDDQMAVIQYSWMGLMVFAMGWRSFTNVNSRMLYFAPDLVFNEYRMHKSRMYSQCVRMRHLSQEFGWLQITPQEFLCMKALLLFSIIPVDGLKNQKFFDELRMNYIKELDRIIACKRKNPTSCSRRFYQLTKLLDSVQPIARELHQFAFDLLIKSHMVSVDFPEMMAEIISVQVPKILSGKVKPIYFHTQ
The data set is described as follows: Assessment of AR proteolytic activity (Western blotting of LNCap cell lysates). It is filed as cell-based. Conditions: 24 hours of treatment, Western blotting quantified with Image J; for remaining activity at 1 µM: read-out: Degradation (1 μM treated in LNCaP, % AR remaining). Put shortly: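 AR degradation read by Western blot densitometry on RIPA lysates (pH 7.5, protease inhibitor cocktail). Lysates came from LNCap cells, 5.5×10^5 per well, exposed to compound for 24 hours.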

The next data set has as its system VCaP cells. Briefly: Cytotoxicity assessment (Cell-titer-glo cell viability), VCaP.
The test system of another data set is LNCaP cells. Briefly: Cytotoxicity assessment (Cell-titer-glo cell viability), LNCaP.
[1] abbreviates: Homo sapiens, VCaP, 144 h, read-out: VCaP (CC50, μM).
The mark [2] stands for this setting: Homo sapiens, LNCaP, 144 h, read-out: LNCAP (CC50, μM).
The mark [3] stands for this setting: read-out: VCaP (CC50), VCaP cells, 6 days of treatment, Cell-titer-glo, vs DMSO.
[4] abbreviates: read-out: LNCAP (CC50), LNCaP cells, 6 days of treatment, Cell-titer-glo, vs DMSO.

The structures appear in SMILES notation. Read-outs that look alike come from different tables or passages of the source.

Protocol for LNCaP cells: In order to evaluate the androgen receptor (AR) cytotoxicity of the compounds according to the present invention, the following experiment was conducted. Specifically, 1.5×10^3 (LNCaP) or 4×10^3 (VCaP, 22RV1), respectively, of LNCaP, VCaP, and 22RV1 cells were injected into each well of a 96-well plate. The next day, each well was treated with the compound at a final concentration of 3 nM, 10 nM, 30 nM, 100 nM, 300 nM, 1 μM, 3 μM, and 10 μM. […] After 6 days of treatment, Cell-titer-glo (promega) was treated and reacted for 10 minutes, and cell viability was measured with a multimode plate reader (PerkinElmer, Inc.), and the change was quantified compared to when DMSO was treated.

With `CC1(C)[C@H](NC(=O)c2ccc(N3CCN(CC4CCN(c5ccc6nnn(C7CCC(=O)NC7=O)c(=O)c6c5)CC4)CC3)cc2)C(C)(C)[C@H]1Oc1ccc(C#N)c(Cl)c1` (stereo partly drawn) [Example 8, N-((1r,3r)-3-(3-chloro-4-cyanophenoxy)-2,2,4,4-tetramethylcyclobutyl)-4-(4-((1-(3-(2,6-dioxopiperidin-3-yl)-4-oxo-3,4-dihydrobenzo[d][1,2,3]triazin-6-yl)piperidin-4-yl)methyl)piperazin-1-yl)benzamide], on Androgen receptor (AR), the remaining activity at 1 µM is 8.1%. Moreover, the CC50 with VCaP cells (setting [1]) was 0.685 µM; in the data set on LNCaP cells (setting [2]), 0.163 µM.

`CC1(C)[C@H](NC(=O)c2ccc(N3CCN(CC4CCN(C(=O)C5CCN(c6ccc7nnn(C8CCC(=O)NC8=O)c(=O)c7c6)CC5)CC4)CC3)cc2)C(C)(C)[C@H]1Oc1ccc(C#N)c(Cl)c1` (stereo partly drawn) [Example 10, N-((1r,3r)-3-(3-chloro-4-cyanophenoxy)-2,2,4,4-tetramethylcyclobutyl)-4-(4-((1-(1-(3-(2,6-dioxopiperidin-3-yl)-4-oxo-3,4-dihydrobenzo[d][1,2,3]triazin-6-yl)piperidine-4-carbonyl)piperidin-4-yl)methyl)piperazin-1-yl)benzamide]: the “Degradation (1 μM treated in LNCaP, % AR remaining)” value at Androgen receptor (AR) worked out at 12.5%. Also, the CC50 in the data set with VCaP cells (setting [3]) amounted to 0.257 µM; with LNCaP cells (setting [4]), 0.19 µM.

In the case of `CC1(C)[C@H](NC(=O)c2ccc(N3CCN(C4CC5(CCN(C(=O)CNc6ccc7nnn(C8CCC(=O)NC8=O)c(=O)c7c6)CC5)C4)CC3)cc2)C(C)(C)[C@H]1Oc1ccc(C#N)c(Cl)c1` (stereo partly drawn) [Example 19, N-((1r,3r)-3-(3-chloro-4-cyanophenoxy)-2,2,4,4-tetramethylcyclobutyl)-4-(4-(7-((3-(2,6-dioxopiperidin-3-yl)-4-oxo-3,4-dihydrobenzo[d][1,2,3]triazin-6-yl)glycyl)-7-azaspiro[3.5]nonan-2-yl)piperazin-1-yl)benzamide], on Androgen receptor (AR), the “Degradation (1 μM treated in LNCaP, % AR remaining)” value is on record as 23%. In addition, the CC50 in the data set with VCaP cells (setting [3]) is 0.0763 µM; with LNCaP cells (setting [4]) it was 0.208 µM.

For `CC1(C)[C@H](NC(=O)c2ccc(N3CCN(C4CC5(CCN(C(=O)C6CCN(c7ccc8nnn(C9CCC(=O)NC9=O)c(=O)c8c7)CC6)CC5)C4)CC3)cc2)C(C)(C)[C@H]1Oc1ccc(C#N)c(Cl)c1` (stereo partly drawn) [Example 20, N-((1r,3r)-3-(3-chloro-4-cyanophenoxy)-2,2,4,4-tetramethylcyclobutyl)-4-(4-(7-(1-(3-(2,6-dioxopiperidin-3-yl)-4-oxo-3,4-dihydrobenzo[d][1,2,3]triazin-6-yl)piperidine-4-carbonyl)-7-azaspiro[3.5]nonan-2-yl)piperazin-1-yl)benzamide], at Androgen receptor (AR), the “Degradation (1 μM treated in LNCaP, % AR remaining)” value is 26%. Besides, the figures for the CC50 in the data set with VCaP cells (setting [3]) and in the data set on LNCaP cells (setting [4]) were 0.0542 µM and 0.178 µM, respectively.

In the case of `CC1(C)[C@H](NC(=O)c2ccc(N3CCN(C4CC5(CCN(c6cccc7nnn(C8CCC(=O)NC8=O)c(=O)c67)CC5)C4)CC3)cc2)C(C)(C)[C@H]1Oc1ccc(C#N)c(Cl)c1` (stereo partly drawn) [Example 22, N-((1r,3r)-3-(3-chloro-4-cyanophenoxy)-2,2,4,4-tetramethylcyclobutyl)-4-(4-(7-(3-(2,6-dioxopiperidin-3-yl)-4-oxo-3,4-dihydrobenzo[d][1,2,3]triazin-5-yl)-7-azaspiro[3.5]nonan-2-yl)piperazin-1-yl)benzamide], the “Degradation (1 μM treated in LNCaP, % AR remaining)” value at Androgen receptor (AR) is 74%. For the same compound, the CC50 in the data set with VCaP cells (setting [3]) stood at 0.135 µM; with LNCaP cells (setting [4]), 13.4 µM.

With `CC1(C)[C@H](NC(=O)c2ccc(N3CCN(C4CC5(CCN(c6ccc7nnn(C8CCC(=O)NC8=O)c(=O)c7c6)CC5)C4)CC3)cc2)C(C)(C)[C@H]1Oc1ccc(C#N)c(Cl)c1` (stereo partly drawn) [Example 23, N-((1r,3r)-3-(3-chloro-4-cyanophenoxy)-2,2,4,4-tetramethylcyclobutyl)-4-(4-(7-(3-(2,6-dioxopiperidin-3-yl)-4-oxo-3,4-dihydrobenzo[d][1,2,3]triazin-6-yl)-7-azaspiro[3.5]nonan-2-yl)piperazin-1-yl)benzamide], the “Degradation (1 μM treated in LNCaP, % AR remaining)” value on Androgen receptor (AR) amounted to 5%. The CC50 with VCaP cells (setting [3]) was determined as 0.191 µM; with LNCaP cells (setting [4]), 0.302 µM.

As for `CC1(C)[C@H](NC(=O)c2ccc(N3CCN(CCC4CCN(C(=O)C5CCN(c6ccc7nnn(C8CCC(=O)NC8=O)c(=O)c7c6)CC5)CC4)CC3)cc2)C(C)(C)[C@H]1Oc1ccc(C#N)c(Cl)c1` (stereo partly drawn) [Example 26, N-((1r,3r)-3-(3-chloro-4-cyanophenoxy)-2,2,4,4-tetramethylcyclobutyl)-4-(4-(2-(1-(1-(3-(2,6-dioxopiperidin-3-yl)-4-oxo-3,4-dihydrobenzo[d][1,2,3]triazin-6-yl)piperidine-4-carbonyl)piperidin-4-yl)ethyl)piperazin-1-yl)benzamide], at Androgen receptor (AR), the “Degradation (1 μM treated in LNCaP, % AR remaining)” value amounted to 7%. For the same compound, the CC50 in the data set on VCaP cells (setting [3]) is 0.0516 µM; with LNCaP cells (setting [4]), 0.361 µM.

Regarding `CC1(C)[C@H](NC(=O)c2ccc(N3CCN(CCOC4CCN(C(=O)CNc5ccc6nnn(C7CCC(=O)NC7=O)c(=O)c6c5)CC4)CC3)cc2)C(C)(C)[C@H]1Oc1ccc(C#N)c(Cl)c1` (stereo partly drawn) [Example 31, N-((1r,3r)-3-(3-chloro-4-cyanophenoxy)-2,2,4,4-tetramethylcyclobutyl)-4-(4-(2-((1-((3-(2,6-dioxopiperidin-3-yl)-4-oxo-3,4-dihydrobenzo[d][1,2,3]triazin-6-yl)glycyl)piperidin-4-yl)oxy)ethyl)piperazin-1-yl)benzamide], the remaining activity at 1 µM at Androgen receptor (AR) stood at 5%. The CC50 in the data set with VCaP cells (setting [1]) is 0.0571 µM; in the data set on LNCaP cells (setting [2]), 0.852 µM.

Regarding `CC1(C)[C@H](NC(=O)c2ccc(N3CCN(CCOC4CCN(C(=O)COc5ccc6nnn(C7CCC(=O)NC7=O)c(=O)c6c5)CC4)CC3)cc2)C(C)(C)[C@H]1Oc1ccc(C#N)c(Cl)c1` (stereo partly drawn) [Example 32, N-((1r,3r)-3-(3-chloro-4-cyanophenoxy)-2,2,4,4-tetramethylcyclobutyl)-4-(4-(2-((1-(2-((3-(2,6-dioxopiperidin-3-yl)-4-oxo-3,4-dihydrobenzo[d][1,2,3]triazin-6-yl)oxy)acetyl)piperidin-4-yl)oxy)ethyl)piperazin-1-yl)benzamide], on Androgen receptor (AR), the remaining activity at 1 µM was determined as 2%. The figures for the CC50 with VCaP cells (setting [1]) and in the data set with LNCaP cells (setting [2]) were 0.141 µM and 1.3 µM, respectively.

As for `CC1(C)C(NC(=O)c2ccc(CCN3CCN(CC4CCN(c5ccc6nnn(C7CCC(=O)NC7=O)c(=O)c6c5)CC4)CC3)cc2)C(C)(C)C1Oc1ccc(C#N)c(Cl)c1` (stereo not drawn) [Example 111, N-((1r,3r)-3-(3-chloro-4-cyanophenoxy)-2,2,4,4-tetramethylcyclobutyl)-4-(2-(4-((1-(3-(2,6-dioxopiperidin-3-yl)-4-oxo-3,4-dihydrobenzo[d][1,2,3]triazin-6-yl)piperidin-4-yl)methyl)piperazin-1-yl)ethyl)benzamide], the CC50 with VCaP cells (setting [3]) was 0.00229 µM; in the data set with LNCaP cells (setting [4]) it was 0.0372 µM.

`CC1(C)C(NC(=O)c2ccc(-c3cnn(C4CCN(CC5CCN(c6ccc7nnn(C8CCC(=O)NC8=O)c(=O)c7c6)CC5)CC4)c3)nc2)C(C)(C)C1Oc1ccc(C#N)c(Cl)c1` (stereo not drawn) [Example 115, N-((1r,3r)-3-(3-chloro-4-cyanophenoxy)-2,2,4,4-tetramethylcyclobutyl)-6-(1-(1-((1-(3-(2,6-dioxopiperidin-3-yl)-4-oxo-3,4-dihydrobenzo[d][1,2,3]triazin-6-yl)piperidin-4-yl)methyl)piperidin-4-yl)-1H-pyrazol-4-yl)nicotinamide]: the CC50 in the data set on VCaP cells (setting [3]) is 0.038 µM; in the data set with LNCaP cells (setting [4]), 0.182 µM.

In the case of `CC1(C)C(NC(=O)c2ccc(C#CCC3CCN(CC4CCN(C(=O)C5CN(c6ccc7nnn(C8CCC(=O)NC8=O)c(=O)c7c6)C5)CC4)CC3)cc2)C(C)(C)C1Oc1ccc(C#N)c(Cl)c1` (stereo not drawn) [Example 117, N-((1r,3r)-3-(3-chloro-4-cyanophenoxy)-2,2,4,4-tetramethylcyclobutyl)-4-(3-(1-((1-(1-(3-(2,6-dioxopiperidin-3-yl)-4-oxo-3,4-dihydrobenzo[d][1,2,3]triazin-6-yl)azetidine-3-carbonyl)piperidin-4-yl)methyl)piperidin-4-yl)prop-1-yn-1-yl)benzamide], the figures for the CC50 with VCaP cells (setting [3]) and in the data set on LNCaP cells (setting [4]) were 0.013 µM and 0.166 µM, respectively.

The record behind these values is US20240018123A1, “COMPOUND FOR INHIBITING OR DISINTEGRATING ANDROGEN RECEPTOR, AND PHARMACEUTICAL USE THEREOF” (KOREA RESEARCH INSTITUTE OF CHEMICAL TECHNOLOGY, priority 2020, published 2024).
